The record followed here is a melting point compilation (Tetko et al.).

By melting point is commonly meant the temperature, or range, at which the solid turns liquid. The compound `O=C(O)c1cc(Br)cc(S(=O)(=O)Cl)c1` registered a melting point of 154 to 156 °C.
In turn, `Cc1nc(-c2ccc(F)cc2)sc1C(C)O` (stereo not drawn) registered a melting point of 113 to 115 °C.
`Nc1ccn(Cc2cccc3cccnc23)n1` gave a melting point of 120 to 122 °C.
`Nc1ccc(-c2nc3ccccc3o2)cc1` showed a melting point of 170 to 172 °C.
Turning to `COC(=O)c1cc(C)nc(SC)n1`, the melting point is 116 to 118 °C.
Compound `Cc1[nH]nc(C(N)=O)c1N` gave a melting point of 219 to 221 °C.
In the case of `O=C(O)CCNC(=O)c1ccc(F)cc1Cl`, the melting point fell in the range of 141 to 143 °C.
With `O=C(O)Cc1n[nH]c2ccccc12` the figure was 167 to 169 °C.
With `Cc1ccc(-c2nnc(N)[nH]2)s1` the figure was 222 to 224 °C.
For `CNC(=O)NC1(C(=O)O)CCCC1` the value was 165 to 167 °C; for `C=CC(=O)Nc1ccc(OCC)c(CO)c1`, 129 to 131 °C; for `Cc1cc(C)nc(-n2cc(C(=O)O)c(C(C)C)n2)n1`, 171 to 173 °C.
In turn, `O=C(NCc1ccc(Cl)cc1)n1ccnc1` showed a melting point of 94 to 96 °C.
As for `COc1ccc(-c2n[nH]c(=O)c3ccccc23)cc1F`, the melting point was in the range of 269 to 271 °C.
Regarding `O=c1[nH]c(CN2CCOCC2)nc2sc3c(c12)CCCC3`, the melting point was 162 to 164 °C.
The compound `CS(=O)(=O)Cc1c(C(=O)O)sc2ccccc12` displayed a melting point of 276 to 278 °C.
For `COc1ccccc1-c1cc(N)[nH]n1` the value was 94 to 96 °C; for `CNS(=O)(=O)Cc1cc(C)on1`, 69 to 71 °C.
`CC(=O)Nc1ccc(C(=O)O)nc1`: the melting point lay within 204 to 206 °C.
For `CC(=O)Nc1cc(C)c(S(=O)(=O)Cl)cc1Br` the value was 109 to 111 °C; for `N#CC1(NC(=O)c2ccccc2)CCCCC1`, 135 to 137 °C; for `C#CCn1c2ccccc2c2ccccc21`, 103 to 105 °C.
Compound `O=C1COc2cc([N+](=O)[O-])c(F)cc2N1` yielded a melting point of 221 to 223 °C.
Turning to `Nc1ccc(Oc2ccc(CO)cc2)cc1`, the melting point lay within 79 to 81 °C.
`CC(C)(C)c1ccc(Cl)nn1` gave a melting point of 83 to 85 °C.
With `CNc1ccc(Br)cc1[N+](=O)[O-]` the figure was 101 to 103 °C.
For `CNCC(=O)Nc1ccc(Cl)cc1` the value was 58 to 60 °C; for `Cc1ncc(C(=O)O)c(Br)c1Cl`, 129 to 131 °C.
As for `COc1ccc(/C=C/C(=O)O)cc1F`, the melting point fell in the range of 222 to 224 °C.
`CCOC(=O)c1c[nH]cc1C(F)(F)F` showed a melting point of 161 to 163 °C.
With `NCC(c1cccs1)c1c[nH]c2ccccc12` (stereo not drawn) the figure was 145 to 147 °C; with `COc1ccc(C#N)cc1N`, 74 to 76 °C; with `CC(=O)c1ccc(S(C)(=O)=O)c(F)c1`, 103 to 105 °C.
With `CC(=O)c1nnn(-c2ccc(F)cc2)c1C` the figure was 77 to 79 °C.
`O=C1c2ccccc2C(=O)N1CCCCCCO` displayed a melting point of 57 to 59 °C.
For `O=C(c1cnc(Cl)c(Cl)c1)N1CCCCC1` the value was 78 to 80 °C; for `N#Cc1cc(Br)ccc1S(=O)(=O)Cl`, 94 to 96 °C; for `Cc1nn(-c2ccccc2)c2sc(C(=O)NN)cc12`, 264 to 266 °C.
With `COC(=O)c1cc(C)nc2nc(S)[nH]c(=O)c12` the figure was 259 to 261 °C; with `O=C(O)c1nnn(-c2cccc(Br)c2)c1C(F)(F)F`, 154 to 156 °C.
Regarding `CC1CCC(NC2CCC(O)CC2)CC1` (stereo not drawn), the melting point was 143 to 145 °C.
Take `Sc1nnc(NCCCN2CCOCC2)s1`: the melting point lay in the range of 145 to 147 °C.
For `O=C(O)C1(c2cccc(Br)c2)CCOCC1` the value was 152 to 154 °C; for `NCc1noc(-c2ccsc2)n1`, 127 to 129 °C.
With `O=C(Cc1cccc(F)c1)c1ccc(Cl)c(Cl)c1` the figure was 121 to 123 °C; with `O=C(O)c1nc(OCC(F)(F)F)ccc1Cl`, 85 to 87 °C.
For `Brc1nnc(Br)s1` the value was 104 to 106 °C; for `CCCn1c(=O)n(CC(=O)O)c2ccccc21`, 173 to 175 °C.
